Laboratory results reported in US20250340574A1, “MODULATORS OF CYSTIC FIBROSIS TRANSMEMBRANE CONDUCTANCE REGULATOR” (Vertex Pharmaceuticals Incorporated, priority 2022, published 2025).
Like-named read-outs stand apart in the source and are kept apart here. Each block holds one compound with its values, some of them ahead of it.

Experiments:
[1] = target: T1, CFTR (F508del/MF-HBE cells) (Homo sapiens, UniProt P13569, DEL508-508); assay: Ussing chamber assay of CFTR-mediated short-circuit currents, Assay D (single concentration of 1 μM); format: cell-based; conditions: with 44 nM potentiator and 18 μM Tezacaftor, 20% human serum; for D activity at 1 μM (%): 18-24 hours
T1 construct: human bronchial epithelial (HBE) cells derived from CF subjects heterozygous for F508del and a minimal function CFTR mutation (F508del/MF-HBE); endogenous in cells; host or cells: Primary human bronchial epithelial cells from CF subjects (F508del/MF genotype), differentiated at an air-liquid interface
T1 sequence (P13569 with tags, fused parts or gaps DEL508-508): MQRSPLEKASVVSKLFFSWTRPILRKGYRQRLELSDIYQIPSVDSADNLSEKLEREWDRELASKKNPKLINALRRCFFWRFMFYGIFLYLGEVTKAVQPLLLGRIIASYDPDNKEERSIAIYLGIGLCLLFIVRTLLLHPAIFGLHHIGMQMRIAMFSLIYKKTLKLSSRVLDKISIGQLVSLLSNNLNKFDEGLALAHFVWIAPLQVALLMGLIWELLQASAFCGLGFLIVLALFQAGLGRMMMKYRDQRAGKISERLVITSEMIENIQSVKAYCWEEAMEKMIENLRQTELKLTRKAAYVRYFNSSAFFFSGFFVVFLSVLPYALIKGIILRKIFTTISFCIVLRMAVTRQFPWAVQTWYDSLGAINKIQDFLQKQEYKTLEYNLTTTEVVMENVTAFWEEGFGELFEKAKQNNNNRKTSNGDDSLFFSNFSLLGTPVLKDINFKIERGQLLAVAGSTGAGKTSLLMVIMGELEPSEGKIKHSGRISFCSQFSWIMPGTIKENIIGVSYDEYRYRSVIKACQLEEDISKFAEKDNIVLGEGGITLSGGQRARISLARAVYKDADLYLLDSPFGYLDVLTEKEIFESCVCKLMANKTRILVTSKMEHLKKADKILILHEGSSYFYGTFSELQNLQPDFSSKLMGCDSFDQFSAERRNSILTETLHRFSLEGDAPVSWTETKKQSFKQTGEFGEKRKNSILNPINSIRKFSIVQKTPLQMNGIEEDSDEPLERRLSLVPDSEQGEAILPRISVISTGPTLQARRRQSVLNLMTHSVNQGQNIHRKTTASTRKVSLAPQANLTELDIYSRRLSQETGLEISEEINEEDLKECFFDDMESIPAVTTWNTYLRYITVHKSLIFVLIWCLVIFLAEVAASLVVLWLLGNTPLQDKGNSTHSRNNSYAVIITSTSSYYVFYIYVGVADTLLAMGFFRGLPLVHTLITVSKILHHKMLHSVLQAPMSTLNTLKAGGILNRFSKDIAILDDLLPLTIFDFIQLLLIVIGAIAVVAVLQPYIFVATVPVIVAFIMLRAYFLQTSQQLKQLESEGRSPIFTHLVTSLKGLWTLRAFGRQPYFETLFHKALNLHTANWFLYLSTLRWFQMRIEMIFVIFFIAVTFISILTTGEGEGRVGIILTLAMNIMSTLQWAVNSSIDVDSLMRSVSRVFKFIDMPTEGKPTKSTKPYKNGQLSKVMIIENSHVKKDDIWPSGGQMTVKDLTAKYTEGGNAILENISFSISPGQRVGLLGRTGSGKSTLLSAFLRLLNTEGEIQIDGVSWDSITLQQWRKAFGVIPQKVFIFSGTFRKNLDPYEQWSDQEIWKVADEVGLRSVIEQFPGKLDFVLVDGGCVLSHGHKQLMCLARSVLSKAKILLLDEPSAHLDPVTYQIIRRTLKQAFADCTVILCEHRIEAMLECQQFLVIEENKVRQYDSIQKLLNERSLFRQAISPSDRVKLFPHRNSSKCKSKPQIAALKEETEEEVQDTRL
In short: (§1)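 F508del/MF-HBE cells grown at air-liquid interface were incubated 18-24 h at 37 °C in 20% human serum with correctors plus 18 μM tezacaftor and a fixed partner compound (33 nM for concentration series, 44 nM at 1 μM). ISC was read at 0 mV after 20 μM forskolin, minus the post-inhibitor current.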

[2] = amide bond, 13-membered ring, CDMT/NMM
[3] = target: T1, CFTR (F508del/MF-HBE cells); assay: Ussing chamber assay of CFTR-mediated short-circuit currents, Assay C (0.026 μM to 25 μM, 6 concentrations); format: cell-based; conditions: with 33 nM potentiator and 18 μM Tezacaftor, 20% human serum; for Emax: read-out: C Max activity (%)
In short: as §1

SMILES: Cc1cccc(C)c1-c1cc2nc(n1)NS(=O)(=O)c1cccc(c1)C(=O)N(Cc1cnc3cc(C(C)(C)C)n(C)c3n1)[C@H](CC1(C)CC1)CO2 [Compound I-187, (11R)-12-[(6-tert-Butyl-5-methyl-pyrrolo[2,3-b]pyrazin-3-yl)methyl]-6-(2,6-dimethylphenyl)-11-[(1-methylcyclopropyl)methyl]-2,2-dioxo-9-oxa-2λ^6-thia-3,5,12,19-tetrazatricyclo[12.3.1.14,8]nonadeca-1(18),4(19),5,7,14,16-hexaen-13-one]
D activity at 1 μM (%) [1]: +++ (+++ is >60%) | ring closure, yield after HPLC ([2]; from Cc1cccc(C)c1-c1cc(OC[C@@H](CC2(C)CC2)NCc2cnc3cc(C(C)(C)C)n(C)c3n2)nc(NS(=O)(=O)c2cccc(C(=O)O)c2)n1, DMF, 22.5 mM, 4.0 h): 41% | Emax ([3]; 18-24 hours): > 60% | EC50 [3]: < 1000 nM

SMILES: COc1c2nc(nc1-c1c(C)cccc1C)NS(=O)(=O)c1cccc(c1)C(=O)N(Cc1cnc3oc(C(C)C)cc3n1)[C@H](CC(C)(C)C)CC2 [Compound I-157, (11S)-6-(2,6-Dimethylphenyl)-11-(2,2-dimethylpropyl)-12-[(6-isopropylfuro[2,3-b]pyrazin-2-yl)methyl]-7-methoxy-2,2-dioxo-2λ^6-thia-3,5,12,19-tetrazatricyclo[12.3.1.14,8]nonadeca-1(18),4(19),5,7,14,16-hexaen-13-one]
D activity at 1 μM (%) [1]: +++ (+++ is >60%) | ring closure, yield after HPLC ([2]; from COc1c(CC[C@@H](CC(C)(C)C)NCc2cnc3oc(C(C)C)cc3n2)nc(NS(=O)(=O)c2cccc(C(=O)O)c2)nc1-c1c(C)cccc1C, DMF, 11.0 mM, 3.5 h): 62%

SMILES: Cc1cccc(C)c1-c1cc2nc(n1)NS(=O)(=O)c1cccc(c1)C(=O)N(Cc1cnc3oc(C4CC4)cc3n1)[C@H](Cc1ccccc1)CO2 [Compound I-191, (11R)-11-Benzyl-12-[(6-cyclopropylfuro[2,3-b]pyrazin-2-yl)methyl]-6-(2,6-dimethylphenyl)-2,2-dioxo-9-oxa-2λ^6-thia-3,5,12,19-tetrazatricyclo[12.3.1.14,8]nonadeca-1(18),4(19),5,7,14,16-hexaen-13-one]
D activity at 1 μM (%) [1]: +++ (+++ is >60%) | ring closure, yield after HPLC ([2]; from Cc1cccc(C)c1-c1cc(OC[C@@H](Cc2ccccc2)NCc2cnc3oc(C4CC4)cc3n2)nc(NS(=O)(=O)c2cccc(C(=O)O)c2)n1, DMSO, 2.75 h): 60%

SMILES: Cc1cccc(C)c1-c1cc2nc(n1)NS(=O)(=O)c1cccc(c1)C(=O)N(Cc1ccc3oc(C4(C)CC4)cc3n1)[C@H](CC13CC(C1)C3)CO2 [Compound I-225, (11R)-11-(1-Bicyclo[1.1.1]pentanylmethyl)-6-(2,6-dimethylphenyl)-12-[[2-(1-methylcyclopropyl)furo[3,2-b]pyridin-5-yl]methyl]-2,2-dioxo-9-oxa-2λ^6-thia-3,5,12,19-tetrazatricyclo[12.3.1.14,8]nonadeca-1(18),4(19),5,7,14,16-hexaen-13-one]
D activity at 1 μM (%) [1]: +++ (+++ is >60%) | ring closure, yield after HPLC ([2]; from Cc1cccc(C)c1-c1cc(OC[C@@H](CC23CC(C2)C3)NCc2ccc3oc(C4(C)CC4)cc3n2)nc(NS(=O)(=O)c2cccc(C(=O)O)c2)n1, DMF): 61%

More lines, main results first:

D act. at 1 μM (%) [1]: +++ (+++ is >60%) | EC50 [3]: < 1000 nM | Emax [3]: > 60%
SMILES: Cc1cccc(COC(C)C)c1-c1nc2nc(c1C)OC[C@@H](CC(C)(C)C)N(Cc1cnc3oc(C(C)(C)C)cc3n1)C(=O)c1cccc(c1)S(=O)(=O)N2 (single isomer, unassigned) [IV-40]
ring closure, yield after HPLC ([2]; from Cc1cccc(COC(C)C)c1-c1nc(NS(=O)(=O)c2cccc(C(=O)O)c2)nc(OC[C@@H](CC(C)(C)C)NCc2cnc3oc(C(C)(C)C)cc3n2)c1C, DMF, 15.1 mM, 25.0 °C, 60.0 h): 23%

D activity at 1 μM (%) [1]: +++ (+++ is >60%)
SMILES: Cc1cccc(C)c1-c1cc2nc(n1)NS(=O)(=O)c1cccc(c1)C(=O)N(Cc1cnc3c(n1)CN(C(C)C)C3=O)[C@H](CC13CC(C1)C3)CO2 [III-16, (11R)-11-(1-bicyclo[1.1.1]pentanylmethyl)-6-(2,6-dimethylphenyl)-12-[(6-isopropyl-7-oxo-5H-pyrrolo[3,4-b]pyrazin-3-yl)methyl]-2,2-dioxo-9-oxa-2λ^6-thia-3,5,12,19-tetrazatricyclo[12.3.1.14,8]nonadeca-1(18),4(19),5,7,14,16-hexaen-13-one]
ring closure, yield after HPLC ([2]; from Cc1cccc(C)c1-c1cc(OC[C@@H](CC23CC(C2)C3)NCc2cnc3c(n2)CN(C(C)C)C3=O)nc(NS(=O)(=O)c2cccc(C(=O)O)c2)n1, DMF, 13.0 mM, 16.5 h): 39%
